Key:
[1] = test system: primary human mast cells (human skin); test: Histamine release assay, anti-IgE induced, primary human mast cells; assay type: cell-based; settings: Mast cell, maximal effect at 25 μM, not dependent on pre-incubation time, read-out: maximal inhibitory effect on IgE-induced histamine release
Method: Tissue mast cells were isolated from human skin obtained during cosmetic surgery. Use of human skin was conducted according to the Declaration of Helsinki Principles and was approved by the Institutional Review Board of the Charité—Universitätsmedizin Berlin. For isolation of mast cells, the epidermis was enzymatically detached by an overnight incubation at 4° C. with dispase at a concentration of 1 mg/ml. The remaining dermis was dispersed by incubation with a mix of collagenase I and hyaluronidase for 1 h at 37° C. Dispersion was repeated three times, and the collected cells were washed. […] The final mast cell purity was >90% as measured by Toluidin blue staining. The viability of mast cells was >95% as assessed by Trypan blue staining (Grützkau et al 2000, Artuc et al 2002). The quantification of histamine levels was achieved using an automated histamine-analyser system (Firm Borgwelt Technik). The wavelength of the excitation was 355-360 nm and the emission wavelength of fluorescence measurement was 450-460 nm. The intensity of fluorescence was directly proportional to the concentration of histamine in the samples. The amount of released histamine was calculated according to the following formula: net histamine release=(release−blank)×(100/complete). […]

[2] = test system: membrane integrity (lactate dehydrogenase release)

## CCCCCCCCCCCCCCCCOP(=O)([O-])OCC[N+](C)(C)C [Compound 3, 1-hexadecylphosphoryl-choline]
[1]
  inhibition at 25 µM: 35%
[2]
  CD50: 69.5 µM

— patent publication US8394785B2, “Methods for the treatment and amelioration of urticaria” (Jado Technologies GmbH, priority 2005, dated 2013)
